Literature values, collected in US20060035317A1, “Effect of treatment with 4,5-dihydroxy-2-cyclopenten-1-one (dhcp) on gene expression and quorum-sensing in bacteria” (priority 2002, published 2006).
Where two headings read alike, the source gives them in different places.

System: E. coli (gene expression)
Conditions: Wang et al., 2001, cited from earlier work

Q: With `c1ccc2[nH]ccc2c1` [indole] as the molecule, how does the “Induction of gene by indole” value (gene cysK) read?
A: induces

Q: What about the “Induction of gene by indole” value (gene gabT) of the same molecule?
A: not
